These compounds were tested against T1, NLRP3 inflammasome (Homo sapiens, UniProt Q96P20) (assay: IL-1β secretion assay (nigericin-activated, PMA-differentiated THP-1 cells, HTRF)). Details: IL-1β IC50, PMA-differentiated THP-1 cells; compound 1 hour, then 15 μM nigericin, 3 hours; IL-1β by HTRF.
T1 construct: host or cells: THP-1 cells, PMA-differentiated
Assay type: cell-based
Procedure: 10 μL supernatant was removed, and IL-1β levels were monitored using an HTRF assay (CisBio, #62IL1PEC) according to manufacturers' instructions. Viability and pyroptosis was monitored with the addition of PrestoBlue cell viability reagent (Life Technologies, #A13261) directly to the cell culture plate.
IC50 values were calculated from the plot of percentage of inhibition versus the inhibitor concentration by a logistics fit according to: y=A2+(A1−A2)/(1+(x/IC50)^p) where y is the %-inhibition at the inhibitor concentration, x. A1 is the lowest inhibition value, i.e. 0%, and A2 the maximum inhibition value, i.e. 100%. The exponent, p, is the Hill coefficient. The curve fitting was conducted with an internally developed software suite.
NLRP3-dependent IL-1β secretion was stimulated in PMA-differentiated THP-1 cells by the addition of nigericin, and cytokines were measured in the […] after 3 hours. As discussed above, activation of the NLRP3 inflammasome requires both an NF-kB-dependent priming step and the addition of a NLRP3 activator.

T1 sequence (Q96P20 whole entry): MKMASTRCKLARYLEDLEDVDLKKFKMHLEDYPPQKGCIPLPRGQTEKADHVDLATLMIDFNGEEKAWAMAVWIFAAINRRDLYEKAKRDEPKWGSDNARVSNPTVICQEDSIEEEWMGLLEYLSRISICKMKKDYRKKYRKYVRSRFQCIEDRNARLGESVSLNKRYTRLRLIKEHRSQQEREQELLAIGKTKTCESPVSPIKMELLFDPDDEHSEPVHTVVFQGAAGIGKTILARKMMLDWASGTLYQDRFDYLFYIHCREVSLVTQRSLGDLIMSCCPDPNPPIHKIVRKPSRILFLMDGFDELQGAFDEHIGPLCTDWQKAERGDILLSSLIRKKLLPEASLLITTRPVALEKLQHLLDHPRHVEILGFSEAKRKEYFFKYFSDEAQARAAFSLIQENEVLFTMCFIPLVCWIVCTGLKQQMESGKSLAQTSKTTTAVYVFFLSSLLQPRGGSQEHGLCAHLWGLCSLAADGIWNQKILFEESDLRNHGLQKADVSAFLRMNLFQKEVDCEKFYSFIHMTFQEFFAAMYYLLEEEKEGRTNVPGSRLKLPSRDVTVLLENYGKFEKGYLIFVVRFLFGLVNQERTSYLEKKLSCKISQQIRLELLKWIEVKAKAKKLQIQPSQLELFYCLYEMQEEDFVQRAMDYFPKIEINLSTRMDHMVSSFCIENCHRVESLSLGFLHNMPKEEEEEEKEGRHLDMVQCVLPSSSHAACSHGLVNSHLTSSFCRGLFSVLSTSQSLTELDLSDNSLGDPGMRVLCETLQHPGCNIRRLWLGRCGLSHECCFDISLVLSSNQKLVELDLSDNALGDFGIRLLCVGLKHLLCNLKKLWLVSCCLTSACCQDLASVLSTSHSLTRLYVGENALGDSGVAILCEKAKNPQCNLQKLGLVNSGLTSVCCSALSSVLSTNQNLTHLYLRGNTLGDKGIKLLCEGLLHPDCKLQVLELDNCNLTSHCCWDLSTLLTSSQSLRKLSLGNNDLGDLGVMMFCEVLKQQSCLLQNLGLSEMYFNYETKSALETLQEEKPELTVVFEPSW

`Cc1cc(C(F)(F)F)cc(O)c1-c1ccc(NC2CCC3CCC2N3C)nn1` (single isomer, unassigned) [Ex 85b] and `Cc1cc(C(F)(F)F)cc(O)c1-c1ccc(NC2CCC3CCC2N3CCO)nn1` (single isomer, unassigned) [Ex 86b] are within 1.5-fold of each other in IC50: 1.3 nM for the first, 1.8 nM for the second.

Same assay, conditions: PMA-differentiated THP-1 cells; compound 1 hour, then 15 μM nigericin, 3 hours; IL-1β by HTRF; read-out: IL-1β IC50

Going from `Cc1cc(C(F)(F)F)cc(O)c1-c1ccc(NCC2COCCN2C)nn1` (racemic) [Ex 77, (rac)-3-Methyl-2-(6-(((4-methylmorpholin-3-yl)methyl)amino)pyridazin-3-yl)-5-(trifluoromethyl)phenol] to `CCN1CCC[C@H]1CNc1ccc(-c2c(C)cc(C(F)(F)F)cc2O)nn1` [Ex 8, (S)-2-(6-(((1-Ethylpyrrolidin-2-yl)methyl)amino)pyridazin-3-yl)-3-methyl-5-(trifluoromethyl)phenol], the IC50 falls from 61.9 nM to 24.1 nM (2.6-fold).

Going from `Cc1cc(C(F)(F)F)cc(O)c1-c1ccc(N[C@@H]2CCC[C@H]2O)nn1` (relative stereo) [Ex 24, (trans)-2-(6-((2-Hydroxycyclopentyl)amino)pyridazin-3-yl)-3-methyl-5-(trifluoromethyl)phenol] to `Cc1cc(C(F)(F)F)cc(O)c1-c1ccc(N[C@@H]2CCC[C@H](O)C2)nn1` [Ex 3, 2-(6-(((1R,3S)-3-Hydroxycyclohexyl)amino)pyridazin-3-yl)-3-methyl-5-(trifluoromethyl)phenol], the IC50 falls from 120 nM to 25.5 nM (4.7-fold).

Compared with `Cc1cc(C(F)(F)F)cc(O)c1-c1ccc(N[C@@H]2CCCN3CCC[C@H]23)nn1` (single isomer, unassigned) [Ex 83a], `Cc1cc(C(F)(F)F)cc(O)c1-c1ccc(N[C@H]2CCCN3CCC[C@@H]23)nn1` (single isomer, unassigned) [Ex 83b] is 87-fold higher in IC50: 0.8 nM for the first, 69.4 nM for the second.

`Cc1cc(C(F)(F)F)cc(O)c1-c1ccc(NC[C@H]2CCCCN2CCO)nn1` (single isomer, unassigned) [Ex 84a] and `Cc1cc(C(F)(F)F)cc(O)c1-c1ccc(NC[C@@H]2CCCCN2CCO)nn1` (single isomer, unassigned) [Ex 84b] are within 1.5-fold of each other in IC50: 42.5 nM for the first, 53.3 nM for the second.

`Cc1cc(C(F)(F)F)cc(O)c1-c1ccc(NC2CCC3CCC2N3C)nn1` (single isomer, unassigned) [Ex 85a] and `Cc1cc(C(F)(F)F)cc(O)c1-c1ccc(NC2CCC3CCC2N3CCO)nn1` (single isomer, unassigned) [Ex 86a] are within 1.5-fold of each other in IC50: 148 nM for the first, 175 nM for the second.

`Cc1cc(C(F)(F)F)cc(O)c1-c1ccc(NC[C@](C)(O)CO)nn1` (single isomer, unassigned) [Ex 88a] and `Cc1cc(C(F)(F)F)cc(O)c1-c1ccc(NC[C@@](C)(O)CO)nn1` (single isomer, unassigned) [Ex 88b] are within 1.5-fold of each other in IC50: 62.3 nM for the first, 60.5 nM for the second.

First: Cc1cc(C(F)(F)F)cc(O)c1-c1ccc(N[C@H]2CC[C@H](O)[C@@H]2O)nn1 (single isomer, unassigned) [Ex 89a]
Second: Cc1cc(C(F)(F)F)cc(O)c1-c1ccc(N[C@@H]2CC[C@@H](O)[C@H]2O)nn1 (single isomer, unassigned) [Ex 89b]
The IC50 of the first is 3-fold lower: 59.7 nM for the first, 182 nM for the second. The first is the more potent here.

First: Cc1cc(C(F)(F)F)cc(O)c1-c1ccc(NC[C@@H](O)C(C)C)nn1 (single isomer, unassigned) [Ex 90a]
Second: Cc1cc(C(F)(F)F)cc(O)c1-c1ccc(NC[C@H](O)C(C)C)nn1 (single isomer, unassigned) [Ex 90b]
The IC50 of the first is 1.8-fold lower: 64.2 nM for the first, 115 nM for the second.

First: Cc1cc(C(F)(F)F)cc(O)c1-c1ccc(N[C@H]2C[C@@](C)(O)C2)nn1 [Ex 2, 2-(6-(((cis)-3-Hydroxy-3-methylcyclobutyl)amino)pyridazin-3-yl)-3-methyl-5-(trifluoromethyl)phenol]
Second: Cc1cc(C(F)(F)F)cc(O)c1-c1ccc(NC[C@@H]2CC(F)(F)CN2)nn1 [Ex 22, (S)-2-(6-(((4,4-Difluoropyrrolidin-2-yl)methyl)amino)pyridazin-3-yl)-3-methyl-5-(trifluoromethyl)phenol]
The IC50 of the first is 7.9-fold lower: 10.2 nM for the first, 80.7 nM for the second. The first is the more potent here.

Compared with `Cc1cc(C(F)(F)F)cc(O)c1-c1ccc(NCC(O)(C(F)(F)F)C(F)(F)F)nn1` [Ex 10, 3-Methyl-2-(6((3,3,3-trifluoro-2-hydroxy-2-(trifluoromethyl)propyl)amino)pyridazin-3-yl)-5-(trifluoromethyl)phenol], `Cc1cc(C(F)(F)F)cc(O)c1-c1ccc(NCC(C)(C)O)nn1` [Ex 15, 2-(6-((2-Hydroxy-2-methylpropyl)amino)pyridazin-3-yl)-3-methyl-5-(trifluoromethyl)phenol] is 4.1-fold lower in IC50: 349 nM for the first, 85.9 nM for the second.

`Cc1cc(C(F)(F)F)cc(O)c1-c1ccc(NC[C@H]2CCCN2)nn1` [Ex 14, (R)-3-Methyl-2-(6-((pyrrolidin-2-ylmethyl)amino)pyridazin-3-yl)-5-(trifluoromethyl)phenol] and `Cc1cc(C(F)(F)F)cc(O)c1-c1ccc(NC[C@H]2CCCCN2)nn1` [Ex 20, (R)-3-Methyl-2-(6-((piperidin-2-ylmethyl)amino)pyridazin-3-yl)-5-(trifluoromethyl)phenol] are within 1.5-fold of each other in IC50: 85.7 nM for the first, 82.3 nM for the second.

First: Cc1cc(C(F)(F)F)cc(O)c1-c1ccc(NCC(C)(C)N(C)C)nn1 [Ex 16, 2-(6-((2-(Dimethylamino)-2-methylpropyl)amino)pyridazin-3-yl)-3-methyl-5-(trifluoromethyl)phenol]
Second: Cc1cc(C(F)(F)F)cc(O)c1-c1ccc(NCC(C)(C)N)nn1 [Ex 29, 2-(6-((2-Amino-2-methylpropyl)amino)pyridazin-3-yl)-3-methyl-5-(trifluoromethyl)phenol]
The IC50 of the first is 4.7-fold lower: 36.3 nM for the first, 169 nM for the second.

Compared with `Cc1cc(C(F)(F)F)cc(O)c1-c1ccc(OCC(C)(C)O)nn1` [Ex 19, 2-(6-(2-Hydroxy-2-methylpropoxy)pyridazin-3-yl)-3-methyl-5-(trifluoromethyl)phenol], `CC(C)(O)CNc1ccc(-c2c(O)cc(C(F)(F)F)cc2Cl)nn1` [Ex 30, 3-Chloro-2-(6-((2-hydroxy-2-methylpropyl)amino)pyridazin-3-yl)-5-(trifluoromethyl)phenol] is 2.3-fold higher in IC50: 93.6 nM for the first, 214 nM for the second. The first is the more potent here.

Compared with `Cc1cc(C(F)(F)F)cc(O)c1-c1ccc(NC[C@@H]2CCCCN2)nn1` [Ex 21, (S)-3-Methyl-2-(6-((piperidin-2-ylmethyl)amino)pyridazin-3-yl)-5-(trifluoromethyl)phenol], `Cc1cc(C(F)(F)F)cc(O)c1-c1ccc(NC[C@H]2CC(F)(F)CN2)nn1` [Ex 23, (R)-2-(6-(((4,4-Difluoropyrrolidin-2-yl)methyl)amino)pyridazin-3-yl)-3-methyl-5-(trifluoromethyl)phenol] is 1.9-fold higher in IC50: 48.4 nM for the first, 93.4 nM for the second. The first is the more potent here.

Going from `Cc1cc(C(F)(F)F)cc(O)c1-c1cc(C(F)(F)F)c(NCCO)nn1` [Ex 26, 2-(6-((2-Hydroxyethyl)amino)-5-(trifluoromethyl)pyridazin-3-yl)-3-methyl-5-(trifluoromethyl)phenol] to `Cc1cc(C(F)(F)F)cc(O)c1-c1ccc(NCc2ccccn2)nn1` [Ex 28, 3-Methyl-2-(6-((pyridin-2-ylmethyl)amino)pyridazin-3-yl)-5-(trifluoromethyl)phenol], the IC50 rises from 165 nM to 288 nM (1.7-fold).

`Oc1cc(C(F)(F)F)cc(Cl)c1-c1ccc(N[C@H]2C[C@@H](O)C2)nn1` [Ex 31, 3-Chloro-2-(6-((cis-3-hydroxycyclobutyl)amino)pyridazin-3-yl)-5-(trifluoromethyl)phenol] and `Oc1cc(C(F)(F)F)cc(Cl)c1-c1ccc(N[C@H]2C[C@H](O)C2)nn1` [Ex 32, 3-Chloro-2-(6-((trans-3-hydroxycyclobutyl)amino)pyridazin-3-yl)-5-(trifluoromethyl)phenol] are within 1.5-fold of each other in IC50: 167 nM for the first, 218 nM for the second.

Source: patent US12139471B2, “NLRP3 inflammasome inhibitors” (Novartis AG, priority 2019, dated 2024)
